{"source": "patent US6429204B1", "about": "“Method of inhibiting cancer growth” (University of Miami, priority 1997, dated 2002)", "key": {"[1]": {"system": "MMP-2 (gelatinase A) expressed by COLO 205 cells", "test": "MMP protein expression by Western blot of conditioned medium, COLO 205 cells", "assay_type": "cell-based, human", "conditions": "24 hr, serum-free medium", "description": "Two human cancer-derived cell lines were obtained from the American Type Culture Collection (ATCC) in Rockville, Md. The cell lines included COLO 205, a human colon cancer-derived cell line that expresses MMP-2 or gelatinase A, and E-10, a human breast cancer-derived cell line that expresses MMP-9 or gelatinase B.\nCells of each cell line were cultured in 75 cm^2 T-flasks in RPMI-1640 (Gibco) with 10% heat-inactivated fetal bovine serum (FBS) containing 100 units/mL penicillin and 100 μg/mL streptomycin. The cells were fed every two days, and passaged every week. The cells were grown to 80-90% confluence, and then the FBS-containing medium was replaced with a serum-free medium (SFM). CMT-3 (CollaGenex Pharmaceuticals, Inc., Newtown, Pa.) was added in several concentrations to the cells in SFM. Conditioned medium was collected after 24 hr, centrifuged to remove cell debris, and then assayed for MMP protein expression by Western blot using a conventional technique, and scanning the blots with a laser densitometer."}, "Gelatinase A": {"biological_target": "T1, Gelatinase A (Homo sapiens, UniProt P08253)", "T1 construct": "endogenous in cells; host or cells: C8161", "T1 sequence (P08253 110-660)": "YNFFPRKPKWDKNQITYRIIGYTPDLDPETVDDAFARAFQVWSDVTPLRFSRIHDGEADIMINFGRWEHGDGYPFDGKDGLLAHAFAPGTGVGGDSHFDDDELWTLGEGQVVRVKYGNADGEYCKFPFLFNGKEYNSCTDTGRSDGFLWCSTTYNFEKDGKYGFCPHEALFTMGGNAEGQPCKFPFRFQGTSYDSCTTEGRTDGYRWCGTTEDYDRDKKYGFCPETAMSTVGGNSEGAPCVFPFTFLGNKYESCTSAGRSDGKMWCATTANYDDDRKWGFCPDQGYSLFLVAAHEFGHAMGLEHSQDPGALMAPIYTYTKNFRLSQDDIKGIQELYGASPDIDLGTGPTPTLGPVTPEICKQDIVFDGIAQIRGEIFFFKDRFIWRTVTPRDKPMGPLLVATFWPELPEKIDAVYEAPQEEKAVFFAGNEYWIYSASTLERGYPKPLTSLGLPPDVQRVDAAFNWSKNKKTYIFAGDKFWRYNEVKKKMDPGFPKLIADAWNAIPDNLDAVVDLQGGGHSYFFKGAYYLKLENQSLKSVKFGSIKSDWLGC", "test": "Zymography with densitometry of C8161 conditioned medium, gelatinase A", "assay_type": "cell-based", "conditions": "50 μg/mL, 24 hr", "description": "Six hundred thousand (6×10^5) C8161 cells were seeded per well in a 12-well dish coated with a laminin/collagen IV/gelatin matrix in DMEM plus Mito+ and 0.1% gentamicin sulfate. After approximately 1 hr incubation to allow the cells to attach, 50 μg/mL of either doxycycline or one of the other CMTs was added per well and the dish then placed in a 37° C. humidified 5% CO2 incubator. After 24 hr, the supernatants were removed and centrifuged to remove any cells or debris. One volume of Laemmli sample buffer minus reductant was added to two volumes of the medium, and this sample electrophoresed without prior heating or boiling on a 10% SDS-PAGE containing 0.1% gelatin (samples normalized based on the same number of cells per volume of medium per time of incubation). After electrophoresis, the gels were washed with gentle shaking at room temperature for 30 min in 50 mM Tris-HCl (pH 7.5) plus 2.5% TRITON® X100 plus 50 μg/mL of the corresponding CMT used in the original treatment. The gel was then placed in incubation buffer (50 mM Tris-Cl/10 mM CaCl2/150 mM NaCl/0.05% NaN3) also containing 50 μg/mL of the corresponding CMT, and incubated at 37° C. for 20-24 hr. The gels were stained with Coomassie BBR-250, then destained with 10% methanol/10% acetic acid in water until the wash remained clear. A photographic negative of the gel was digitized using a video camera and Snappy Video Snapshot system (Play Inc., Rancho Cordova, Calif.). An integrated density was determined for each of the cleared zones of proteolysis using the software ImagePC8α (freely available from the National Institutes of Health), and the corresponding changes in gelatinolytic activities reported compared to the control samples normalized to a value of 1.0."}, "[2]": {"system": "normal prostate stromal cells", "test": "Alamar Blue viability assay, normal prostate stromal cells", "assay_type": "cell-based, human", "from_the_text": "(§1) Several cancer cell lines and normal cells were examined in vitro to determine whether tetracycline compounds produce cytotoxic (cell killing) effects. A conventional assay for viability of cultured cells based on redox activity in the cells was employed (Pagé et al. 1993). The assay uses a redox dye Alamar Blue, which is a fluorogenic indicator dye that is converted to a fluorescent red product only when cells are carrying out electron transport activity, a widely accepted criterion of viability.\nCultured cells from three prostate tumor cell lines, LNCAP, DU-145, and PC-3, and normal prostate stromal cells obtained by biopsy of a normal person, were allowed to grow to confluence in multiwell microplates to minimize differences in proliferative activity among the cell types at the time of exposure to the test compound. […] At the start of the experiment, and again at 1, 2, and 3 days, selected wells were incubated with the indicator dye for 3 hr, and the fluorescence was measured on a Cytofluor 2300 fluorescent microplate reader."}, "PC-3 tumor cells": {"system": "PC-3 tumor cells", "test": "Alamar Blue viability assay, PC-3", "assay_type": "cell-based, human", "from_the_text": "as §1\nCultured cells from three prostate tumor cell lines, LNCAP, DU-145, and PC-3, and normal prostate stromal cells obtained by biopsy of a normal person, were allowed to grow to confluence in multiwell microplates to minimize differences in proliferative activity among the cell types at the time of exposure to the test compound. CMT-3 was added to the wells at concentrations of 10 μM and 20 μM (50 μM also in the case of DU-145). At the start of the experiment, and again at 1, 2, and 3 days, selected wells were incubated with the indicator dye for 3 hr, and the fluorescence was measured on a Cytofluor 2300 fluorescent microplate reader."}, "prostate cancer cells": {"system": "prostate cancer cells", "test": "Invasive potential of prostate cancer cells in vitro (summary)", "assay_type": "cell-based", "conditions": "5 μg/mL"}, "E-10 Cells": {"system": "E-10 Cells", "test": "MTS cytotoxicity assay, E-10", "conditions": "two days", "protocol": "A panel of chemically modified tetracycline compounds and doxycycline were tested for cytotoxicity against two carcinomas: COLO 205 (a human colon carcinoma-derived cell line) and the E-10 clone of MDA-MB-231 (a human breast carcinoma-derived cell line). Cytoxicity was measured using a conventional assay for viability with a tetrazolium salt (MTS). Cells were grown in media containing the CMTs at concentrations ranging from 5 μM to 100 μM for two days. The cells were then incubated with the MTS for several hours before removal of the supernatant medium for determination of formazan, which is generated only by the viable cells. Results are expressed as percent cytotoxicity, which is simply the percent decline in measured formazan concentration in the sampled medium."}}, "note": "Several values for one entry are separate records, joined by “and”; a condition that tells them apart may be missing. Equal values may be shown once."}
{"compound": "NC(=O)C1=C(O)CC2CC3Cc4cccc(O)c4C(=O)C3=C(O)C2(O)C1=O", "note": "(centres unmarked) [CMT-3, 6-demethyl-6-deoxy-4-de(dimethylamino)tetracycline]", "values": [{"measurement": "Percent Inhibition of MMP Protein Expression", "setting": "[1]; COLO 205, MMP-2, 10 μM", "value": 13.3, "unit": "%"}, {"measurement": "Percent Inhibition of MMP Protein Expression", "setting": "[1]; COLO 205, MMP-2, 20 μM", "value": 66.9, "unit": "%"}, {"measurement": "Gelatinase A, integrated density normalized to control 1.00", "setting": "Gelatinase A", "value": 0.22}, {"measurement": "change in fluorescence (viability)", "setting": "[2]; 10 μM and 20 μM, three-day period", "value": "virtually no change in fluorescence"}, {"measurement": "cytotoxicity", "setting": "[2]; 50 µM", "value": "no comparable cytotoxicity"}, {"measurement": "cytotoxicity", "setting": "PC-3 tumor cells; 24 hr", "value": "about 25%"}, {"measurement": "cytotoxicity", "setting": "PC-3 tumor cells; 48 hr", "value": "~50", "unit": "%"}, {"measurement": "cytotoxicity", "setting": "PC-3 tumor cells; 72 hr", "value": "~75", "unit": "%"}, {"measurement": "inhibition at 5 µg/mL", "setting": "prostate cancer cells", "value": 90, "unit": "%"}, {"measurement": "percent cytotoxicity", "setting": "E-10 Cells; 10 μM", "value": 1.8, "unit": "%"}, {"measurement": "percent cytotoxicity", "setting": "E-10 Cells; 20 μM", "value": "4.15% and 8.5%"}]}
